In PubChem BioAssay AID330 (DTP/NCI, 2004):
Several values for one entry are separate records, joined by “and”; a condition that tells them apart may be missing. Identical values can stand only once. Toxic doses and inconclusive results are not listed.

Tested on: P388 leukemia ip, CD2F1 mice, survival T/C
Test: NCI In Vivo Anticancer Drug Screen. Data for tumor model P388 Leukemia (intraperitoneal) in CD2F1 (CDF1) mice
Conditions: endpoint: median survival time, higher = longer survival
Method in brief: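 Mice carrying the transplanted tumor received test compound or vehicle. Survival was recorded in each group, and the value is the treated-group measurement divided by that of the vehicle-treated control group.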

[1] = dose: 100.0 mg/kg/injection, schedule: Q04DX003 (ip), vehicle: Klucel (hydroxypropylcellulose) (HPC)
[2] = dose: 200.0 mg/kg/injection, schedule: Q04DX003 (ip), vehicle: Klucel (hydroxypropylcellulose) (HPC)
[3] = dose: 50.0 mg/kg/injection, schedule: Q01DX009 (ip), vehicle: saline with Tween-80
[4] = dose: 60.0 mg/kg/injection, schedule: Q01DX005 (ip), vehicle: saline with Tween-80
[5] = dose: 120.0 mg/kg/injection, schedule: Q01DX005 (ip), vehicle: saline with Tween-80
[6] = dose: 240.0 mg/kg/injection, schedule: Q01DX005 (ip), vehicle: saline with Tween-80
[7] = dose: 12.5 mg/kg/injection, schedule: Q04DX003 (ip), vehicle: saline with Tween-80
[8] = dose: 25.0 mg/kg/injection, schedule: Q04DX003 (ip), vehicle: saline with Tween-80
[9] = dose: 50.0 mg/kg/injection, schedule: Q04DX003 (ip), vehicle: saline with Tween-80
[10] = dose: 12.5 mg/kg/injection, schedule: Q04DX002 (ip), vehicle: saline with Tween-80
[11] = dose: 25.0 mg/kg/injection, schedule: Q04DX002 (ip), vehicle: saline with Tween-80

Structure (SMILES): CN(C)CC1CCC1N1c2ccccc2Sc2ccc(Cl)cc21 (configuration not stated)
- T/C (dose: 50.0 mg/kg/injection, schedule: Q04DX003 (ip), vehicle: Klucel (hydroxypropylcellulose) (HPC)): 105 % of control
- T/C [1]: 100 % of control
- T/C [2]: 98 % of control

Structure (SMILES): O=C(C(=O)C(Br)Br)C(Br)Br
- T/C (dose: 1.56 mg/kg/injection, schedule: Q01DX009 (ip), vehicle: DMSO): 99 % of control
- T/C (dose: 3.12 mg/kg/injection, schedule: Q01DX009 (ip), vehicle: DMSO): 103 % of control
- T/C (dose: 6.25 mg/kg/injection, schedule: Q01DX009 (ip), vehicle: DMSO): 99 % of control

Structure (SMILES): O=C1OC(=O)C2C1C1(c3ccccc3)OC2(c2ccccc2)c2ccccc21 (configuration not stated)
- T/C (dose: 100.0 mg/kg/injection, schedule: Q04DX003 (ip), vehicle: saline with Tween-80): 110 % of control
- T/C (dose: 200.0 mg/kg/injection, schedule: Q04DX003 (ip), vehicle: saline with Tween-80): 109 % of control
- T/C (dose: 400.0 mg/kg/injection, schedule: Q04DX003 (ip), vehicle: saline with Tween-80): 118 % of control

Structure (SMILES): O=S1CCS(=O)C1c1ccccc1 (configuration not stated)
- T/C (dose: 50.0 mg/kg/injection, schedule: Q01DX005 (ip), vehicle: other): 99 % of control
- T/C (dose: 100.0 mg/kg/injection, schedule: Q01DX005 (ip), vehicle: other): 103 % of control

Structure (SMILES): CCCCCCCC/C=C\CCCCCCCC(=O)NCCCN(C)C
- T/C (dose: 12.5 mg/kg/injection, schedule: Q01DX009 (ip), vehicle: saline): 98 % of control
- T/C (dose: 25.0 mg/kg/injection, schedule: Q01DX009 (ip), vehicle: saline): 91 % of control
- T/C [3]: 112 % of control

Structure (SMILES): CCN1CCC(=C(c2ccccc2)c2ccccc2)C1
- T/C (dose: 6.25 mg/kg/injection, schedule: Q01DX009 (ip), vehicle: Klucel (hydroxypropylcellulose) (HPC)): 102 % of control
- T/C (dose: 12.5 mg/kg/injection, schedule: Q01DX009 (ip), vehicle: Klucel (hydroxypropylcellulose) (HPC)): 102 % of control
- T/C (dose: 25.0 mg/kg/injection, schedule: Q01DX009 (ip), vehicle: Klucel (hydroxypropylcellulose) (HPC)): 100 % of control
- T/C (dose: 50.0 mg/kg/injection, schedule: Q01DX009 (ip), vehicle: Klucel (hydroxypropylcellulose) (HPC)): 110 % of control
- T/C (dose: 100.0 mg/kg/injection, schedule: Q01DX009 (ip), vehicle: Klucel (hydroxypropylcellulose) (HPC)): 108 % of control

Structure (SMILES): Cc1ccc2c(c1)S(=O)(=O)NC2=O
- T/C [4]: 95 % of control
- T/C [5]: 92 % of control
- T/C [6]: 95 % of control

Structure (SMILES): CC(CN(C)C)CN1c2ccccc2Sc2ccccc21 (configuration not stated)
- T/C [7]: 112 % of control
- T/C [8]: 115 % of control
- T/C (dose: 33.0 mg/kg/injection, schedule: Q04DX003 (ip), vehicle: saline with Tween-80): 123 % of control
- T/C [9]: 117 % of control

Structure (SMILES): c1csc(C2N3CCN(CC3)C(c3cccs3)N3CCN2CC3)c1 (configuration not stated)
- T/C [4]: 100 % of control
- T/C [5]: 104 % of control
- T/C [6]: 103 % of control

Structure (SMILES): Cc1c(-c2ccccc2)[nH]c2cc3c(cc12)Oc1ccccc1O3
- T/C (dose: 17.5 mg/kg/injection, schedule: Q01DX009 (ip), vehicle: Klucel (hydroxypropylcellulose) (HPC)): 101 % of control
- T/C (dose: 35.0 mg/kg/injection, schedule: Q01DX009 (ip), vehicle: Klucel (hydroxypropylcellulose) (HPC)): 106 % of control
- T/C (dose: 70.0 mg/kg/injection, schedule: Q01DX009 (ip), vehicle: Klucel (hydroxypropylcellulose) (HPC)): 105 % of control

Structure (SMILES): CCCCCCCCN(c1ccc(C(=O)NC(CCC(=O)OCC)C(=O)OCC)cc1)S(=O)(=O)c1ccc(C)cc1 (configuration not stated)
- T/C [7]: 104 % of control
- T/C [8]: 100 % of control
- T/C [9]: 95 % of control

Structure (SMILES): CC(=O)CC(=O)c1c(-c2ccccc2)n(C)c2ccccc12
- T/C (dose: 100.0 mg/kg/injection, schedule: Q01DX001 (ip), vehicle: Klucel (hydroxypropylcellulose) (HPC)): 98 % of control
- T/C (dose: 200.0 mg/kg/injection, schedule: Q01DX001 (ip), vehicle: Klucel (hydroxypropylcellulose) (HPC)): 101 % of control
- T/C (dose: 400.0 mg/kg/injection, schedule: Q01DX001 (ip), vehicle: Klucel (hydroxypropylcellulose) (HPC)): 102 % of control

Structure (SMILES): CC(C)(Cc1nc2ccccc2[nH]1)Cc1nc2ccccc2[nH]1
- T/C (dose: 7.5 mg/kg/injection, schedule: Q01DX005 (ip), vehicle: Klucel (hydroxypropylcellulose) (HPC)): 99 % of control
- T/C (dose: 15.0 mg/kg/injection, schedule: Q01DX005 (ip), vehicle: Klucel (hydroxypropylcellulose) (HPC)): 94 % of control
- T/C (dose: 30.0 mg/kg/injection, schedule: Q01DX005 (ip), vehicle: Klucel (hydroxypropylcellulose) (HPC)): 91 % of control
- T/C (dose: 60.0 mg/kg/injection, schedule: Q01DX005 (ip), vehicle: Klucel (hydroxypropylcellulose) (HPC)): 90 % of control

Structure (SMILES): O=C1c2ccccc2C(=O)c2c1c([N+](=O)[O-])c1c(c2[N+](=O)[O-])OCO1
- T/C [4]: 86 % of control
- T/C [5]: 86 % of control
- T/C [6]: 96 % of control

Structure (SMILES): O=C(Nc1cccc(Cl)c1)N1CC1
- T/C [3]: 105 % of control
- T/C (dose: 100.0 mg/kg/injection, schedule: Q01DX009 (ip), vehicle: saline with Tween-80): 113 % of control

Structure (SMILES): COC(=O)Nc1ccc(C2OCCN2C(=O)Nc2ccc(Cl)cc2)cc1 (configuration not stated)
- T/C (dose: 50.0 mg/kg/injection, schedule: Q01DX005 (ip), vehicle: saline with Tween-80): 87 % of control
- T/C (dose: 100.0 mg/kg/injection, schedule: Q01DX005 (ip), vehicle: saline with Tween-80): 88 % of control

Structure (SMILES): C/C(=N\NC(=S)/N=c1\sccn1Cc1ccccc1)c1ccccn1
- T/C (dose: 6.25 mg/kg/injection, schedule: Q01DX005 (ip), vehicle: saline with Tween-80): 117 % of control and 123 % of control

Structure (SMILES): O=C(Nc1ccc(Cl)cc1)Oc1ccc(Cl)cc1C(=O)c1ccccc1
- T/C [4]: 111 % of control
- T/C [5]: 110 % of control
- T/C [6]: 112 % of control

Structure (SMILES): C=COC(=O)C(Cc1ccc(OC)cc1)NC(=O)OCc1ccccc1 (configuration not stated)
- T/C (dose: 100.0 mg/kg/injection, schedule: Q04DX002 (ip), vehicle: Klucel (hydroxypropylcellulose) (HPC)): 103 % of control
- T/C (dose: 200.0 mg/kg/injection, schedule: Q04DX002 (ip), vehicle: Klucel (hydroxypropylcellulose) (HPC)): 91 % of control
- T/C (dose: 400.0 mg/kg/injection, schedule: Q04DX002 (ip), vehicle: Klucel (hydroxypropylcellulose) (HPC)): 94 % of control

Structure (SMILES): CC(C)=CCOc1cc(O)c(CC2=C(O)C(C)(C)C(=O)C(C(=O)C(C)C)=C2O)c(O)c1C(=O)c1ccccc1
- T/C (dose: 0.83 mg/kg/injection, schedule: Q01DX005 (ip), vehicle: DMSO): 110 % of control
- T/C (dose: 1.65 mg/kg/injection, schedule: Q01DX005 (ip), vehicle: DMSO): 103 % of control
- T/C (dose: 3.3 mg/kg/injection, schedule: Q01DX005 (ip), vehicle: DMSO): 103 % of control
- T/C (dose: 6.6 mg/kg/injection, schedule: Q01DX005 (ip), vehicle: DMSO): 88 % of control

Structure (SMILES): Cc1nc(Nc2ccccc2C)c2ccsc2n1
- T/C (dose: 50.0 mg/kg/injection, schedule: Q01DX005 (ip), vehicle: Klucel (hydroxypropylcellulose) (HPC)): 91 % of control
- T/C (dose: 100.0 mg/kg/injection, schedule: Q01DX005 (ip), vehicle: Klucel (hydroxypropylcellulose) (HPC)): 87 % of control

Structure (SMILES): O=C1CCCCc2scc(C(=O)O)c2N1
- T/C [1]: 104 % of control
- T/C [2]: 111 % of control
- T/C (dose: 400.0 mg/kg/injection, schedule: Q04DX003 (ip), vehicle: Klucel (hydroxypropylcellulose) (HPC)): 102 % of control

Structure (SMILES): CCn1c2nc(=O)n(C)c(=O)c-2[n+]([O-])c2cc(Br)ccc21
- T/C (dose: 6.25 mg/kg/injection, schedule: Q04DX002 (ip), vehicle: saline with Tween-80): 100 % of control
- T/C [10]: 96 % of control
- T/C [11]: 89 % of control and 92 % of control

Structure (SMILES): C=C(C)C(=O)c1ccc(C(=O)O)cc1
- T/C [10]: 105 % of control
- T/C [11]: 114 % of control
- T/C (dose: 50.0 mg/kg/injection, schedule: Q04DX002 (ip), vehicle: saline with Tween-80): 122 % of control

Structure (SMILES): S=C(Nc1ccc(Br)cc1)SCc1ccc(Cl)cc1
- T/C (dose: 50.0 mg/kg/injection, schedule: Q01DX009 (ip), vehicle: suspension in saline): 97 % of control
- T/C (dose: 100.0 mg/kg/injection, schedule: Q01DX009 (ip), vehicle: suspension in saline): 105 % of control
- T/C (dose: 200.0 mg/kg/injection, schedule: Q01DX009 (ip), vehicle: suspension in saline): 119 % of control

Structure (SMILES): FC(F)(F)SN1COCN(SC(F)(F)F)C1
- T/C (dose: 30.0 mg/kg/injection, schedule: Q01DX005 (ip), vehicle: saline): 96 % of control
- T/C (dose: 60.0 mg/kg/injection, schedule: Q01DX005 (ip), vehicle: saline): 100 % of control
- T/C (dose: 120.0 mg/kg/injection, schedule: Q01DX005 (ip), vehicle: saline): 99 % of control and 102 % of control
